Tests used:
Assay type in all cases: physicochemical
[1] = Stability of 2-halogenated 2′-deoxyadenosines and 2′-deoxyadenosine in NDS buffer (sodium nitrite, pH 5.5), LC/MS; conditions: for Reaction in NDS buffer (products formed; deaminated nucleoside): LC/MS
Protocol: (§1) Analytical LC/MS was performed on the Agilent 1100 Series system. Nucleosides were analysed using gradient of acetonitrile in 20 mM NH4OAc, pH 4.5. The 1 M stock solution of NH4OAc, pH 4.5 was prepared by dissolving NH4OAc (g) in H2O and adjusted to pH 4.5 with acetic acid. This was further diluted with water to the concentrations required for the chromatography.
(§2) Column: Ascentis Express C18 15×4.6 mm, 5 μm; Column temperature 30° C., Flow rate 1 mL/min, UV detection 254 nm.
2 M sodium acetate pH 5.5 buffer was made from sodium acetate trihydrate (2.72 g) made up to 9.5 mL with water, then titrated to pH 5.5 with acetic acid, and finally made up to 10 mL. NDS buffer was made from acetate solution (3.934 mL), sodium nitrite (380 mg, 5.5 mmol) and water (3.934 mL), then adjusted to pH 5.5 with 10 M sodium hydroxide (˜1 drop required). 2-chloro-2′-deoxyadenosine (0.5 mg), 2-fluoro-2′-deoxyadenosine (0.5 mg) and 2′-deoxyadenosine (0.5 mg) as a control were respectively placed in three vials and each dissolved in 1 mL solution of NDS buffer. The stability was monitored at intervals using LC/MS.

[2] = Stability of 8-aza-adenosine and 2′-deoxyadenosine in NDS buffer, LC/MS; conditions: for Reaction in NDS buffer (products formed; deaminated nucleoside): LC/MS
Protocol: A solution of NDS made up from sodium nitrite, sodium acetate pH 5.5) and titrated to pH 5.5 with 10 M NaOH was obtained (2 mL).
1 mL aliquots of this solution were added to 8-aza-2′-dA (0.5 mg) and 2′-dA (0.5 mg, as a control to compare how additional N atom at 8 position of nucleobase affects reactivity NH2—C6 group with NDS) and analysed at intervals using LC/MS.

[3] = Stability in Oxime Removal Solution (1×ORS) buffer, monitored by LC/MS; conditions: 1×ORS buffer (methoxyamine), 24 h at 37 deg C.
Protocol: as §1, §2
Stock solution of ORS buffer (2×) was prepared from methoxyamine hydrochloride (60 mg, 0.71 mmol), water (MilliQ) (200 uL), pH 5.5 sodium acetate (200 uL) and 10 M sodium hydroxide (53.4 uL) and water (1.4 mL). 2-chloro-2′-deoxyadenosine (1 mg) was dissolved in milliQ water (0.5 mL) and 2×ORS (0.5 mL) was added. The resultant solution was incubated at 37 deg C. and the stability was monitored at intervals using LC/MS. […] 2. Stability of 2-fluoro-2′-deoxyadenosine in ORS Buffer
2-fluoro-2′-deoxyadenosine (1 mg) was dissolved in milliQ water (0.5 mL) and 2×ORS (0.5 mL) was added. The resultant solution was incubated at 37 deg C. and the stability was monitored at intervals using LC/MS.

[4] = buffer, 24 h, 0.5 mg/mL, pH 5.5
[5] = buffer, 48 h, 0.5 mg/mL, pH 5.5
[6] = buffer, 120 h, 0.5 mg/mL, pH 5.5

| In (nucleoside peak area %) ([2]; 24 h) | Remaining nucleoside, peak area % ([2]; 24 h) [peak area %] | In (nucleoside peak area %) ([2]; 96 h) | Remaining nucleoside, peak area % ([2]; 96 h) [peak area %] | In (nucleoside peak area %) ([2]; 120 h) | Remaining nucleoside, peak area % ([2]; 120 h) [peak area %] | In (nucleoside peak area %) ([2]; 146 h) | Remaining nucleoside, peak area % ([2]; 146 h) [peak area %] | Structure (SMILES) | Reaction in NDS buffer (products formed; deaminated nucleoside) ([1]; NDS buffer) | Reaction in NDS buffer (products formed; deaminated nucleoside) [2] | further results |
| --- | --- | --- | --- | --- | --- | --- | --- | --- | --- | --- | --- |
| 4.545 | 94.15 | 4.352 | 77.6 | 4.29 | 73 | 4.248 | 70 | Nc1ncnc2c1ncn2[C@H]1C[C@H](O)[C@@H](CO)O1 [dA, 2′-deoxyadenosine] | react in the NDS buffer giving rise to 1 product | react in the NDS buffer giving rise to 1 product | In (remaining nucleoside) [1, 4]: 4.571; Remaining nucleoside [1, 4]: 96.66%; In (remaining nucleoside) [1, 5]: 4.531; Remaining nucleoside [1, 5]: 92.85%; In (remaining nucleoside) [1, 6]: 4.416; Remaining nucleoside [1, 6]: 82.77% |
| 4.592 | 98.65 | 4.538 | 93.49 | 4.519 | 91.74 | 4.5 | 90 | Nc1ncnc2c1nnn2[C@@H]1O[C@H](CO)[C@@H](O)[C@H]1O [8-aza-A, 8-aza-adenosine] |  | react in the NDS buffer giving rise to 1 product | Deamination in NDS buffer, times slower than 2′-dA ([2]; same conditions as 2′-dA): 3.2 × |
|  |  |  |  |  |  |  |  | Nc1nc(Cl)nc2c1ncn2[C@H]1C[C@H](O)[C@@H](CO)O1 [2-Cl-dA, 2-chloro-2′-deoxyadenosine] | react in the NDS buffer giving rise to 1 product |  | Stability in 1×ORS buffer (formation of products) [3]: did not lead to any products; In (remaining nucleoside) ([1]; NDS buffer, 24 h): 4.599; Remaining nucleoside ([1]; NDS buffer, 24 h): 99.42%; In (remaining nucleoside) ([1]; NDS buffer, 48 h): 4.592; Remaining nucleoside ([1]; NDS buffer, 48 h): 98.66%; In (remaining nucleoside) ([1]; NDS buffer, 120 h): 4.57; Remaining nucleoside ([1]; NDS buffer, 120 h): 96.54%; Deamination in NDS buffer, times slower than 2′-dA ([1]; NDS buffer, same conditions as 2′-dA): 5.5 × |
